Experimental data as given in article PMC2215435 (The Journal of General Physiology, 1981).
Like-named read-outs stand apart in the source and are kept apart here.

Tested on: potassium channel
Type: cell-based, squid Loligo pealei
Details: for rate constant of block b: calculated from Kd = l/b and tau decay (Table IV); for tau decay / blocking rate constant K (fit of current with Eq. 2) / unblocking rate constant L (fit of current with Eq. 2): 30 μM; for blocking rate constant K (fit of current with Eq. 2) / unblocking rate constant L (fit of current with Eq. 2): Fig. 1B
[1] = +100 mV, several experiments, Fig. 3B, r = 0.98

CCCCCCC[N+](CC)(CC)CC [C7TE, heptyltriethylammonium]
rate constant of unblock l (+60 mV (Table IV)): 0.071 ms-1
rate constant of block b (+60 mV): 2.8 ms-1 mM-1
rate constant of unblock l (+80 mV (Table IV)): 0.072 ms-1
rate constant of block b (+80 mV): 3.4 ms-1 mM-1
rate constant of unblock l (+100 mV (Table IV)): 0.063 ms-1
rate constant of block b (+100 mV): 3.6 ms-1 mM-1

CCCCCCCCC[N+](CC)(CC)CC [C9TE, nonyltriethylammonium]
rate constant of unblock l (+60 mV (Table IV)): 0.030 ms-1
rate constant of block b (+60 mV): 5.5 ms-1 mM-1
rate constant of unblock l (+80 mV (Table IV)): 0.028 ms-1
rate constant of block b (+80 mV): 6.1 ms-1 mM-1
rate constant of unblock l (+100 mV (Table IV)): 0.033 ms-1
rate constant of block b (+100 mV): 7.3 ms-1 mM-1

CCCCCCCCCC[N+](CC)(CC)CC [C10TE, decyltriethylammonium]
tau decay (+100 mV, 6 °C): 5.78 ms
tau decay (+100 mV, 8 °C): 3.83 ms
tau decay (+100 mV, 16 °C): 2.06 ms
rate constant of unblock l (+60 mV (Table IV)): 0.019 ms-1
rate constant of block b (+60 mV): 5.2 ms-1 mM-1
rate constant of unblock l (+80 mV (Table IV)): 0.019 ms-1
rate constant of block b (+80 mV): 6.0 ms-1 mM-1
rate constant of unblock l (+100 mV (Table IV)): 0.023 ms-1
rate constant of block b (+100 mV): 6.7 ms-1 mM-1

CCCCCCCCCC[N+](CCO)(CCO)CCO [C10TEtoh, decyltriethanolammonium]
rate constant of unblock l (+60 mV (Table IV)): 0.084 ms-1
rate constant of block b (+60 mV): 0.43 ms-1 mM-1
rate constant of unblock l (+80 mV (Table IV)): 0.097 ms-1
rate constant of block b (+80 mV): 0.55 ms-1 mM-1
rate constant of unblock l (+100 mV (Table IV)): 0.110 ms-1
rate constant of block b (+100 mV): 0.65 ms-1 mM-1

CCCCCCCCCC[N+](CCC)(CCC)CCC [C10TP, decyltripropylammonium]
rate constant of unblock l (+60 mV (Table IV)): 0.015 ms-1
rate constant of block b (+60 mV): 0.13 ms-1 mM-1
rate constant of unblock l (+80 mV (Table IV)): 0.016 ms-1
rate constant of block b (+80 mV): 0.15 ms-1 mM-1
rate constant of unblock l (+100 mV (Table IV)): 0.015 ms-1
rate constant of block b (+100 mV): 0.17 ms-1 mM-1

CCCCCCCC[N+](CC)(CC)CCO [CsDEEtoh, octyldiethylethanolammonium]
blocking rate constant K (fit of current with Eq. 2) (+60 mV): 0.162 ms-1
unblocking rate constant L (fit of current with Eq. 2) (+60 mV): 0.118 ms-1
blocking rate constant K (fit of current with Eq. 2) (+100 mV): 0.234 ms-1
unblocking rate constant L (fit of current with Eq. 2) (+100 mV): 0.112 ms-1
rate constant of block b (+60 mV): 6.2 ms-1 mM-1
rate constant of block b (+80 mV): 8.0 ms-1 mM-1
rate constant of block b (+100 mV): 9.4 ms-1 mM-1

CCCCCCCC[N+](CC)(CC)CCCO [CsDEProh, octyldiethylpropanolammonium]
time constant of decay of potassium current (tau decay) (10 μM, +100 mV): 11.42 ms
time constant of decay of potassium current (tau decay) (33 μM, +100 mV): 6.88 ms
time constant of decay of potassium current (tau decay) (100 μM, +100 mV): 2.21 ms
rate constant of unblock l (+60 mV (Table IV)): 0.0236 ms-1
rate constant of block b (+60 mV): 2.56 ms-1 mM-1
rate constant of unblock l (+80 mV (Table IV)): 0.0308 ms-1
rate constant of block b (+80 mV): 3.55 ms-1 mM-1
rate constant of unblock l (+100 mV (Table IV)): 0.0262 ms-1
b from straight line 1/tau decay = b[QA] + l [1]: 4.0 ms-1 mM-1
l from straight line 1/tau decay = b[QA] + l [1]: 0.032 ms-1
rate constant of block b (+100 mV): 4.10 ms-1 mM-1

CCCCCCCC[N+](CC)(CC)CC [CsTE, octyltriethylammonium]
rate constant of unblock l (+60 mV (Table IV)): 0.038 ms-1
rate constant of block b (+60 mV): 5.1 ms-1 mM-1
rate constant of unblock l (+80 mV (Table IV)): 0.038 ms-1
rate constant of block b (+80 mV): 5.5 ms-1 mM-1
rate constant of unblock l (+100 mV (Table IV)): 0.043 ms-1
rate constant of block b (+100 mV): 5.9 ms-1 mM-1

CCCCCCCC[N+](CCC)(CCC)CCC [CsTP, octyltripropylammonium]
rate constant of unblock l (+60 mV (Table IV)): 0.021 ms-1
rate constant of block b (+60 mV): 0.95 ms-1 mM-1
rate constant of unblock l (+80 mV (Table IV)): 0.031 ms-1
rate constant of block b (+80 mV): 1.22 ms-1 mM-1
rate constant of unblock l (+100 mV (Table IV)): 0.039 ms-1
rate constant of block b (+100 mV): 1.40 ms-1 mM-1

CC[N+](CC)(CCO)CCCc1ccccc1 [~PDEEtoh, phenylpropyldiethylethanolammonium]
rate constant of unblock l (+60 mV (Table IV)): 0.024 ms-1
rate constant of block b (+60 mV): 3.4 ms-1 mM-1
rate constant of unblock l (+80 mV (Table IV)): 0.037 ms-1
rate constant of block b (+80 mV): 3.9 ms-1 mM-1
rate constant of unblock l (+100 mV (Table IV)): 0.033 ms-1
rate constant of block b (+100 mV): 4.3 ms-1 mM-1

CC[N+](CC)(CC)CCCc1ccccc1 [~PTE, phenylpropyltriethylammonium]
rate constant of unblock l (+60 mV (Table IV)): 0.015 ms-1
rate constant of block b (+60 mV): 2.5 ms-1 mM-1
rate constant of unblock l (+80 mV (Table IV)): 0.013 ms-1
rate constant of block b (+80 mV): 2.7 ms-1 mM-1
rate constant of unblock l (+100 mV (Table IV)): 0.025 ms-1
rate constant of block b (+100 mV): 3.5 ms-1 mM-1
